Reference: patent publication US12077503B2, “Substituted cyclic amides and their use as herbicides” (FMC CORPORATION, priority 2015, dated 2024)

What was measured:
Type in all cases: in vivo
[1] = tested on: Galium (catchweed bedstraw, Galium aparine); experiment: Test A postemergence; settings: Galium, post-emergence, 240 h, postemergence
Outline: (§1)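 In a loam soil and sand blend, planted seeds got a preemergence directed soil spray, and young plants at the one- to two-leaf stage, 2–10 cm high, got a postemergence application; ~10 d greenhouse hold; injury rated visually, 0 = none, 100 = complete control.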

[2] = tested on: barnyardgrass (Echinochloa crus-galli); experiment: Test A postemergence; settings: Echinochloa crus-galli, post-emergence, 240 h, postemergence
Outline: as §1

[3] = tested on: blackgrass (Alopecurus myosuroides); experiment: Test A postemergence; settings: Alopecurus myosuroides, post-emergence, 240 h, postemergence
Outline: as §1

corn (Zea mays) = experiment: Test A postemergence; settings: Zea mays, post-emergence, 240 h, postemergence
Outline: as §1

[4] = tested on: wheat (Triticum aestivum); experiment: Test A postemergence; settings: Triticum aestivum, post-emergence, 240 h, postemergence
Outline: as §1

Kochia (Kochia scoparia) = experiment: Test A postemergence; settings: Bassia scoparia, post-emergence, 240 h, postemergence
Outline: as §1

[5] = tested on: giant foxtail (Setaria faberii); experiment: Test A postemergence; settings: Setaria faberi, post-emergence, 240 h, postemergence
Outline: as §1

[6] = tested on: ragweed (common ragweed, Ambrosia elatior); experiment: Test A postemergence; settings: Ambrosia artemisiifolia, post-emergence, 240 h, postemergence
Outline: as §1

[7] = tested on: pigweed (Amaranthus retroflexus); experiment: Test A postemergence; settings: Amaranthus retroflexus, post-emergence, 240 h, postemergence
Outline: as §1

[8] = tested on: ryegrass, Italian (Italian ryegrass, Lolium multiflorum); experiment: Test A postemergence; settings: Lolium multiflorum, post-emergence, 240 h, postemergence
Outline: as §1

[9] = tested on: pigweed (Amaranthus retroflexus); experiment: Test A preemergence; settings: Amaranthus retroflexus, pre-emergence, 240 h, preemergence, 0 to 100 scale where 0 is no effect and 100 is complete control, read-out: Pigweed plant response rating
[10] = tested on: ducksalad (Heteranthera limosa); experiment: Test B flooded paddy test; settings: Heteranthera limosa, 250 g ai/ha, Flood; 0 to 100 scale where 0 is no effect and 100 is complete control; read-out: Ducksalad plant response rating
Outline: (§2)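 Flooding to 3 cm over soil accompanied treatment, which consisted of adding compound to the standing water around 2-leaf plants; depth was then maintained. Visual assessment versus controls followed at 13 to 15 d (scale 0–100, 0 meaning no effect).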

[11] = tested on: barnyardgrass (Echinochloa crus-galli); experiment: Test B flooded paddy test; settings: Echinochloa crus-galli, 250 g ai/ha, Flood; 0 to 100 scale where 0 is no effect and 100 is complete control; read-out: Barnyardgrass plant response rating
Outline: as §2

[12] = tested on: sedge, umbrella (small-flower umbrella sedge, Cyperus difformis); experiment: Test B flooded paddy test; settings: Cyperus difformis, 250 g ai/ha, Flood; 0 to 100 scale where 0 is no effect and 100 is complete control; read-out: Sedge, Umbrella plant response rating
Outline: as §2

rice (Oryra sativa) = experiment: Test B flooded paddy test; settings: Oryza sativa, 250 g ai/ha, Flood; 0 to 100 scale where 0 is no effect and 100 is complete control; read-out: Rice plant response rating
Outline: as §2

CSc1ccccc1NC(=O)[C@H]1C(=O)N(C)C[C@@H]1c1ccc(OC(F)F)cc1 [Compound 1212]
pest or weed control at 125 g/ha ([1]; 125 g ai/ha, visual injury vs untreated controls after approx. 10 d, 0 = no effect, 100 = complete control, read-out: Galium plant response rating (0 to 100 scale)): 50%
pest or weed control at 500 g/ha ([1]; 500 g ai/ha, 0 to 100 scale, 0 is no effect, 100 is complete control, read-out: Galium plant response rating): 60%
pest or weed control at 125 g/ha ([2]; 125 g ai/ha, visual injury vs untreated controls after approx. 10 d, 0 = no effect, 100 = complete control, read-out: Barnyardgrass plant response rating (0 to 100 scale)): 80%
pest or weed control at 500 g/ha ([2]; 500 g ai/ha, 0 to 100 scale, 0 is no effect, 100 is complete control, read-out: Barnyardgrass plant response rating): 100%
pest or weed control at 125 g/ha ([3]; 125 g ai/ha, visual injury vs untreated controls after approx. 10 d, 0 = no effect, 100 = complete control, read-out: Blackgrass plant response rating (0 to 100 scale)): 0%
pest or weed control at 500 g/ha ([3]; 500 g ai/ha, 0 to 100 scale, 0 is no effect, 100 is complete control, read-out: Blackgrass plant response rating): 30%
plant injury at 125 g/ha (corn (Zea mays); 125 g ai/ha, visual injury vs untreated controls after approx. 10 d, 0 = no effect, 100 = complete control, read-out: Corn plant response rating (0 to 100 scale)): 0%
plant injury at 500 g/ha (corn (Zea mays); 500 g ai/ha, 0 to 100 scale, 0 is no effect, 100 is complete control, read-out: Corn plant response rating): 20%
plant injury at 125 g/ha ([4]; 125 g ai/ha, visual injury vs untreated controls after approx. 10 d, 0 = no effect, 100 = complete control, read-out: Wheat plant response rating (0 to 100 scale)): 0%
plant injury at 500 g/ha ([4]; 500 g ai/ha, 0 to 100 scale, 0 is no effect, 100 is complete control, read-out: Wheat plant response rating): 40%
pest or weed control at 125 g/ha (Kochia (Kochia scoparia); 125 g ai/ha, visual injury vs untreated controls after approx. 10 d, 0 = no effect, 100 = complete control, read-out: Kochia plant response rating (0 to 100 scale)): 60%
pest or weed control at 500 g/ha (Kochia (Kochia scoparia); 500 g ai/ha, 0 to 100 scale, 0 is no effect, 100 is complete control, read-out: Kochia plant response rating): 80%
pest or weed control at 125 g/ha ([5]; 125 g ai/ha, visual injury vs untreated controls after approx. 10 d, 0 = no effect, 100 = complete control, read-out: Foxtail, Giant plant response rating (0 to 100 scale)): 70%
pest or weed control at 500 g/ha ([5]; 500 g ai/ha, 0 to 100 scale, 0 is no effect, 100 is complete control, read-out: Foxtail, Giant plant response rating): 90%
pest or weed control at 125 g/ha ([6]; 125 g ai/ha, visual injury vs untreated controls after approx. 10 d, 0 = no effect, 100 = complete control, read-out: Ragweed plant response rating (0 to 100 scale)): 0%
pest or weed control at 500 g/ha ([6]; 500 g ai/ha, 0 to 100 scale, 0 is no effect, 100 is complete control, read-out: Ragweed plant response rating): 30%
pest or weed control at 125 g/ha ([7]; 125 g ai/ha, visual injury vs untreated controls after approx. 10 d, 0 = no effect, 100 = complete control, read-out: Pigweed plant response rating (0 to 100 scale)): 50%
pest or weed control at 500 g/ha ([7]; 500 g ai/ha, 0 to 100 scale, 0 is no effect, 100 is complete control, read-out: Pigweed plant response rating): 70%
pest or weed control at 125 g/ha ([8]; 125 g ai/ha, visual injury vs untreated controls after approx. 10 d, 0 = no effect, 100 = complete control, read-out: Ryegrass, Italian plant response rating (0 to 100 scale)): 0%
pest or weed control at 500 g/ha ([8]; 500 g ai/ha, 0 to 100 scale, 0 is no effect, 100 is complete control, read-out: Ryegrass, Italian plant response rating): 20%
pest or weed control at 125 g/ha ([9]; 125 g ai/ha, visual injury rating, approximately 10 d): 80%
pest or weed control at 500 g/ha ([9]; 500 g ai/ha): 90%
pest or weed control at 250 g/ha [10]: 95%
pest or weed control at 250 g/ha [11]: 0%
pest or weed control at 250 g/ha [12]: 0%
pest or weed control at 250 g/ha (rice (Oryra sativa)): 0%
